From paper PMC12845239, “Development of Novel Proline- and Pipecolic Acid-Based Allosteric Inhibitors of Dengue and Zika Virus NS2B/NS3 Protease” (Pharmaceuticals, 2025)
Where two headings read alike, the source gives them in different places.

Tests used:
DENV-2 NS2B-NS3 protease = DENV-2 NS2B-NS3 protease (Dengue virus type 2, UniProt P29990); assay: DENV2 Reporter Gene Assay (DENV2proHeLa); assay type: cell-based; conditions: for inhibition at 25 µM: M-HeLa, read-out: DENV2 proHeLa % inhibition at 25 µM; for EC50: read-out: DENV2 proHeLa EC50
Procedure: The DENV2proHeLa assay was performed as published previously. Stable cells were seeded into 96-well plates with a density of 2 × 10^4 cells per well and treated immediately with inhibitors of the DENV protease in a final volume of 100 μL. After incubation for 24 h at 37 °C, the medium was removed, and cells were lysed by adding 25 μL of lysis buffer (Promega) for 15 min at room temperature. Luciferase activity was recorded using a FLUOstar omega plate reader (BMG Labtech, Ortenberg, Germany) with injections of 100 μL per well of coelenterazine (2.75 μM in PBS). Luminescence was recorded for 5 s. Each concentration was assayed in triplicate. The percentage of inhibition was calculated in relation to the untreated control. For EC50 calculations, data were fitted and calculated with Prism 6.1 (GraphPad Software, Inc., San Diego, CA, USA) using a 4-parameter nonlinear dose-response curve with background subtraction (wells without cells).

DENV NS2B/NS3 = biological target: T1, DENV NS2B/NS3 (Dengue virus type 2, UniProt P29990); assay: biochemical; conditions: for inhibition at 50 µM: read-out: DENV % inhibition at 50 µM; for inhibition at 50 µM / DENV % inhibition at 50 µM: 50 µM inhibitor, DENV-2 protease 100 nM, substrate 50 µM
T1 construct: the hydrophilic 40-residue core domain of NS2B (NS2B(H)-NS3pro); The used DENV protease construct contains the protease domain of NS3

ZIKV NS2B/NS3 = ZIKV NS2B/NS3 (Zika virus, UniProt A0A024B7W1, R1467A/R1531G); assay: ZIKV protease relative inhibition assay (fluorometric, Bz-Nle-Lys-Arg-Arg-AMC 10 µM); assay type: biochemical; conditions: 50 µM inhibitor, ZIKV protease 10 nM, substrate 10 µM
serine protease of ZIKV = conditions: cited from earlier work
serine protease of DENV = tested on: serine protease of DENV; set-up: method as in PMID 31769670; conditions: cited from earlier work
[1] = 25 µM, HeLa reporter cells, 24 h

DENV-2 NS2B-NS3 protease, sequence (P29990 1346-1653): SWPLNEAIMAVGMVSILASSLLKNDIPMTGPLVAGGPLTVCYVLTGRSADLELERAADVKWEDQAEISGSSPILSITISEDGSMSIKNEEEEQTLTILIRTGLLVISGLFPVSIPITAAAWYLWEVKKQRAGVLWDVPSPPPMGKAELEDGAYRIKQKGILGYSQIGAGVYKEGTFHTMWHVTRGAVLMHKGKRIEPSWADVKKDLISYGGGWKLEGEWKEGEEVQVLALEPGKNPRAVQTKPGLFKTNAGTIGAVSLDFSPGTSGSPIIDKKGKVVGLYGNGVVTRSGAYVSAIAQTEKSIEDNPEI
T1 sequence (P29990 1398-1437): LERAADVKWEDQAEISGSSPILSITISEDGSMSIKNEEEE
T1 sequence (P29990 1476-1653): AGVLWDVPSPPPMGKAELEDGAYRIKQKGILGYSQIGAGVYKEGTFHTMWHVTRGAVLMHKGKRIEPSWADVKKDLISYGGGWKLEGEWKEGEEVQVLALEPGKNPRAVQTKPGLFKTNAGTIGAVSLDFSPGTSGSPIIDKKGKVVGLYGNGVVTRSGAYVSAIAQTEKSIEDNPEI

Row | Molecule | inhibition at 25 µM (DENV-2 NS2B-NS3 protease; [1]) | inhibition at 50 µM (DENV NS2B/NS3) | IC50 (DENV NS2B/NS3) | ZIKV % inhibition at 50 µM (ZIKV NS2B/NS3) | further results
1 | O=C(Nc1nc2cc(O)c(O)cc2s1)[C@H]1CCCN1S(=O)(=O)c1ccc([N+](=O)[O-])cc1 [Compound 16, (R)-N-(5,6-Dihydroxybenzo[d]thiazol-2-yl)-1-((4-nitrophenyl)sulfonyl)pyrrolidine-2-carboxamide] | 51.3% | 40.7% | – | – | –
2 | O=C(Nc1nc2cc(O)c(O)cc2s1)[C@H]1CCCCN1S(=O)(=O)c1cccc([N+](=O)[O-])c1 [Compound 27, (R)-N-(5,6-Dihydroxybenzo[d]thiazol-2-yl)-1-((3-nitrophenyl)sulfonyl)piperidine-2-carboxamide] | – | – | 35 ± 2.1 µM | – | EC50 (DENV-2 NS2B-NS3 protease; HeLa reporter cells, 24 h): 5.1 ± 0.53 µM
3 | O=C(Nc1nc2cc(O)c(O)cc2s1)[C@H]1CCCCN1S(=O)(=O)c1ccc([N+](=O)[O-])cc1 [Compound 28, (R)-N-(5,6-Dihydroxybenzo[d]thiazol-2-yl)-1-((4-nitrophenyl)sulfonyl)piperidine-2-carboxamide] | – | – | 27 ± 1.6 µM | – | EC50 (DENV-2 NS2B-NS3 protease; HeLa reporter cells, 24 h): 9 ± 0.4 µM
4 | O=C(Nc1nc2cc(O)c(O)cc2s1)[C@H]1CCCCN1S(=O)(=O)c1ccc(C(F)(F)F)cc1 [Compound 25] | 38% | – | 22.3 ± 1.4 µM | 48.4% | –
5 | O=C(Nc1nc2cc(O)c(O)cc2s1)[C@@H]1CCCN1S(=O)(=O)c1ccc(C(F)(F)F)cc1 [Compound 4] | 19.5% | – | 5.6 ± 0.39 µM | 35.4% | –
6 | O=C(Nc1nc2cc(O)c(O)cc2s1)[C@@H]1CCCCN1S(=O)(=O)c1ccccc1C(F)(F)F [Compound 17, (S)-N-(5,6-Dihydroxybenzo[d]thiazol-2-yl)-1-((2-(trifluoromethyl)phenyl)sulfonyl)piperidine-2-carboxamide] | 41.7% | 58.7% | – | 57.2% | –
7 | O=C(Nc1nc2cc(O)c(O)cc2s1)[C@@H]1CCCCN1S(=O)(=O)c1ccccc1[N+](=O)[O-] [Compound 20, (S)-N-(5,6-Dihydroxybenzo[d]thiazol-2-yl)-1-((2-nitrophenyl)sulfonyl)piperidine-2-carboxamide] | 31.4% | 29.6% | – | – | –
8 | O=C(Nc1nc2cc(O)c(O)cc2s1)[C@@H]1CCCN1S(=O)(=O)c1ccccc1[N+](=O)[O-] [Compound 5, (S)-N-(5,6-Dihydroxybenzo[d]thiazol-2-yl)-1-((2-nitrophenyl)sulfonyl)pyrrolidine-2-carboxamide] | 18.5% | – | 8 ± 0.52 µM | – | –
9 | O=C(Nc1nc2cc(O)c(O)cc2s1)[C@@H]1CCCN1S(=O)(=O)c1cccc([N+](=O)[O-])c1 [Compound 6, (S)-N-(5,6-Dihydroxybenzo[d]thiazol-2-yl)-1-((3-nitrophenyl)sulfonyl)pyrrolidine-2-carboxamide] | 23.5% | – | 6.4 ± 0.52 µM | – | –
10 | (S)-N-(5,6-Dihydroxybenzo[d]thiazol-2-yl)-1-(2-(trifluoromethyl)benzoyl)pyrrolidine-2-carboxamide [Compound 8] | – | – | – | n.i. | DENV2 proHeLa % inhibition at 25 µM (DENV-2 NS2B-NS3 protease; [1]): n.i.; DENV % inhibition at 50 µM (DENV NS2B/NS3): n.i.
11 | O=C(Nc1nc2cc(O)c(O)cc2s1)[C@@H]1CCCN1S(=O)(=O)c1cccc(C(F)(F)F)c1 [Compound 3] | 46.6% | – | 5 ± 0.29 µM | 36.6% | –
12 | O=C(Nc1nc2cc(O)c(O)cc2s1)[C@H]1CCCN1S(=O)(=O)c1ccccc1[N+](=O)[O-] [Compound 14, (R)-N-(5,6-Dihydroxybenzo[d]thiazol-2-yl)-1-((2-nitrophenyl)sulfonyl)pyrrolidine-2-carboxamide] | – | 13.5% | – | 68.5% | inhibition at 25 µM (DENV-2 NS2B-NS3 protease): 17.7%
13 | O=C(Nc1nc2cc(O)c(O)cc2s1)[C@H]1CCCCN1S(=O)(=O)c1ccccc1[N+](=O)[O-] [Compound 26, (R)-N-(5,6-Dihydroxybenzo[d]thiazol-2-yl)-1-((2-nitrophenyl)sulfonyl)piperidine-2-carboxamide] | 9.5% | – | 38.9 ± 4 µM | – | –
14 | O=C(Nc1nc2cc(O)c(O)cc2s1)[C@H]1CCCN1S(=O)(=O)c1cccc([N+](=O)[O-])c1 [Compound 15, (R)-N-(5,6-Dihydroxybenzo[d]thiazol-2-yl)-1-((3-nitrophenyl)sulfonyl)pyrrolidine-2-carboxamide] | 26.9% | 16.9% | – | 54.6% | –
15 | O=C(Nc1nc2cc(O)c(O)cc2s1)[C@@H]1CCCCN1S(=O)(=O)c1cccc(C(F)(F)F)c1 [Compound 18, (S)-N-(5,6-Dihydroxybenzo[d]thiazol-2-yl)-1-((3-(trifluoromethyl)phenyl)sulfonyl)piperidine-2-carboxamide] | – | 55.9% | – | 42.2% | EC50 (DENV-2 NS2B-NS3 protease; HeLa reporter cells, 24 h): 12.8 ± 0.99 µM
16 | O=C(Nc1nc2cc(O)c(O)cc2s1)[C@@H]1CCCCN1S(=O)(=O)c1cccc([N+](=O)[O-])c1 [Compound 21, (S)-N-(5,6-Dihydroxybenzo[d]thiazol-2-yl)-1-((3-nitrophenyl)sulfonyl)piperidine-2-carboxamide] | – | – | – | – | EC50 (DENV-2 NS2B-NS3 protease; HeLa reporter cells, 24 h): 22 ± 1.5 µM; DENV % inhibition at 50 µM (DENV NS2B/NS3): n.i.
17 | O=C(Nc1nc2cc(O)c(O)cc2s1)[C@@H]1CCCN1S(=O)(=O)c1ccccc1C(F)(F)F [Compound 2] | 27.7% | – | 5.1 ± 0.29 µM | 49.6% | –
18 | (S)-N-(5,6-Dihydroxybenzo[d]thiazol-2-yl)-1-(3-(trifluoromethyl)benzoyl)pyrrolidine-2-carboxamide [Compound 9] | – | – | – | 56.5% | DENV2 proHeLa % inhibition at 25 µM (DENV-2 NS2B-NS3 protease; [1]): 42.2%; DENV % inhibition at 50 µM (DENV NS2B/NS3): 55.9%
19 | O=C(Nc1nc2cc(O)c(O)cc2s1)[C@H]1CCCCN1S(=O)(=O)c1ccccc1C(F)(F)F [Compound 23, (R)-N-(5,6-Dihydroxybenzo[d]thiazol-2-yl)-1-((2-(trifluoromethyl)phenyl)sulfonyl)piperidine-2-carboxamide] | 18.5% | – | 41.8 ± 2.2 µM | 36.2% | –
20 | (S)-N-(5,6-Dihydroxybenzo[d]thiazol-2-yl)-1-(4(trifluoromethyl)benzoyl)pyrrolidine-2-carboxamide [Compound 10] | – | – | – | 39.2% | DENV2 proHeLa % inhibition at 25 µM (DENV-2 NS2B-NS3 protease; [1]): 15.4%; DENV % inhibition at 50 µM (DENV NS2B/NS3): 16.8%
21 | O=C(Nc1nc2cc(O)c(O)cc2s1)[C@@H]1CCCN1S(=O)(=O)c1ccc([N+](=O)[O-])cc1 [Compound 7, (S)-N-(5,6-Dihydroxybenzo[d]thiazol-2-yl)-1-((4-nitrophenyl)sulfonyl)pyrrolidine-2-carboxamide, reference compound] | 43% | – | 5 ± 0.37 µM | – | IC50 (serine protease of ZIKV): 0.93 µM; IC50 (serine protease of DENV): 8.58 µM
22 | O=C(Nc1nc2cc(O)c(O)cc2s1)[C@@H]1CCCCN1S(=O)(=O)c1ccc([N+](=O)[O-])cc1 [Compound 22, (S)-N-(5,6-Dihydroxybenzo[d]thiazol-2-yl)-1-((4-nitrophenyl)sulfonyl)piperidine-2-carboxamide] | – | 59.8% | – | – | EC50 (DENV-2 NS2B-NS3 protease; HeLa reporter cells, 24 h): 13.4 ± 1.2 µM
23 | O=C(Nc1nc2cc(O)c(O)cc2s1)[C@H]1CCCCN1S(=O)(=O)c1cccc(C(F)(F)F)c1 [Compound 24, (R)-N-(5,6-Dihydroxybenzo[d]thiazol-2-yl)-1-((3-(trifluoromethyl)phenyl)sulfonyl)piperidine-2-carboxamide] | – | – | 30.8 ± 1.7 µM | 34.5% | EC50 (DENV-2 NS2B-NS3 protease; HeLa reporter cells, 24 h): 5.2 ± 0.43 µM
24 | O=C(Nc1nc2cc(O)c(O)cc2s1)[C@@H]1CCCCN1S(=O)(=O)c1ccc(C(F)(F)F)cc1 [Compound 19] | – | 51.3% | – | – | EC50 (DENV-2 NS2B-NS3 protease; HeLa reporter cells, 24 h): 20.3 ± 1.5 µM
